Test results reported in patent US20250101023A1, “HETEROARYL DERIVATIVE AND USES THEREOF” (IUCF-HYU (INDUSTRY-UNIVERSITY COOPERATION FOUNDATION …, priority 2022, published 2025).
Where two headings read alike, the source gives them in different places.

Experiments:
[1] = test system: cyclinK; assay: Western blot, cyclinK degradation; format: cell-based; conditions: SK-Br3 cell line, 0.2 and 1 μM, 2 hours
[2] = test system: HCC1954 cells; assay: Breast cancer growth inhibitory activity (Cell-titer Glo, 72 h); format: cell-based; conditions: Homo sapiens
Procedure: (§1) Breast cancer cells in a culture solution (100 μL volume/well, 2,500 SK-Br3 cells/well, 1,000 HCC-1954 cells/well) were seeded into a tissue culture-treated 96-well plate and cultured in a cell incubator for 24 hours. […] Cell-titer Glo™ reagent (50 μL of a 5-fold diluted solution, Promega) was added to each well, and luminescence signals were measured using an Envision™ plate reader (PerkinElmer, USA). Titration curve fitting and IC50 values were generated using Prism 7.0 s/w (GraphPad, San Diego, USA).

[3] = target: CDK12/CyclinK (Homo sapiens (Human), UniProt Q9NYV4); assay: CDK12/cyclinK enzyme activity; format: biochemical; conditions: in vitro
[4] = test system: Pol II CTD (Ser2) phosphorylation; assay: Western blot, Pol II CTD Ser2 phosphorylation; format: cell-based; conditions: SK-Br3 cell line, 0.2 and 1 μM, 2 hours
[5] = test system: SK-Br3 cells; assay: Breast cancer growth inhibitory activity (Cell-titer Glo, 72 h); format: cell-based; conditions: Homo sapiens, SK-BR-3
Procedure: as §1

[6] = 72 hours, read-out: HCC1954 (GI50/μM)
[7] = 72 hours, read-out: SK-Br3 (GI50/μM)

Chain of CDK12/CyclinK (Q9NYV4 whole entry): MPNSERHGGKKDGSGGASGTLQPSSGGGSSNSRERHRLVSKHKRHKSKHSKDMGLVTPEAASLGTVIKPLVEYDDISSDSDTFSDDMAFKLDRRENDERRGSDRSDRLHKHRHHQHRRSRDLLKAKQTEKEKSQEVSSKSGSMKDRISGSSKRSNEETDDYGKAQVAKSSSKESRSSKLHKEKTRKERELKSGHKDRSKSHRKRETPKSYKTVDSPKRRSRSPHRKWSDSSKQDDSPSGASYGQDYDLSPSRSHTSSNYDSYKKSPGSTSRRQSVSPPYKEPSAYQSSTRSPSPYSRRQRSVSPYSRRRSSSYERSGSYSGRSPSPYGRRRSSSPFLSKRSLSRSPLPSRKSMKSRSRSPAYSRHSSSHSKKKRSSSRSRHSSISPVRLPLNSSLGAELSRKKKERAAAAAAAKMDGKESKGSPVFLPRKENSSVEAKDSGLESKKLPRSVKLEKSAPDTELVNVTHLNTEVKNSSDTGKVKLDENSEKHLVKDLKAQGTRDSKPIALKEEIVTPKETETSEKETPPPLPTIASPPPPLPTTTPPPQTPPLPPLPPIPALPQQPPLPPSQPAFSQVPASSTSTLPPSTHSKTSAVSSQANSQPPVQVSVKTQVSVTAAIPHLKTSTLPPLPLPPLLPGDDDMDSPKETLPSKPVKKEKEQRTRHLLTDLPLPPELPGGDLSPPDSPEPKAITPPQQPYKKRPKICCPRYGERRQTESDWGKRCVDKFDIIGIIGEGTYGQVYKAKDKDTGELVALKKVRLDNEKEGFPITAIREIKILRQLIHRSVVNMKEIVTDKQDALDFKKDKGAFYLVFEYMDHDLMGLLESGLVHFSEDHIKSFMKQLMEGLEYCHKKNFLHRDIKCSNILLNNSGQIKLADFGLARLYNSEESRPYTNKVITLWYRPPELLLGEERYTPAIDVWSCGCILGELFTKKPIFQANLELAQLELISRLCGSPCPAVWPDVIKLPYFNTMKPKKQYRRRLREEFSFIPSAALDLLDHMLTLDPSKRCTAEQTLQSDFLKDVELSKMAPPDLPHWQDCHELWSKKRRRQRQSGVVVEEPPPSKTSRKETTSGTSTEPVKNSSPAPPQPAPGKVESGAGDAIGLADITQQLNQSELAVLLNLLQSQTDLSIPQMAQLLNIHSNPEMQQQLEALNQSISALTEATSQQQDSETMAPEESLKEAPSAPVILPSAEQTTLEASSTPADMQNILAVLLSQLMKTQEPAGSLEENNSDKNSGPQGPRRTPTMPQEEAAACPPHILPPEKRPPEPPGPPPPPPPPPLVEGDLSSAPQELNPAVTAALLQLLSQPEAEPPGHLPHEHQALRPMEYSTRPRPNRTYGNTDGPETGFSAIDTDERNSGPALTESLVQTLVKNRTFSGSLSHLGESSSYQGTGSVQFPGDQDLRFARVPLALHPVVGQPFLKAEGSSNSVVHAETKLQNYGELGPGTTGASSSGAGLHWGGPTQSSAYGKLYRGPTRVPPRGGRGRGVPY
Chain of CDK12/CyclinK (O75909 whole entry partner): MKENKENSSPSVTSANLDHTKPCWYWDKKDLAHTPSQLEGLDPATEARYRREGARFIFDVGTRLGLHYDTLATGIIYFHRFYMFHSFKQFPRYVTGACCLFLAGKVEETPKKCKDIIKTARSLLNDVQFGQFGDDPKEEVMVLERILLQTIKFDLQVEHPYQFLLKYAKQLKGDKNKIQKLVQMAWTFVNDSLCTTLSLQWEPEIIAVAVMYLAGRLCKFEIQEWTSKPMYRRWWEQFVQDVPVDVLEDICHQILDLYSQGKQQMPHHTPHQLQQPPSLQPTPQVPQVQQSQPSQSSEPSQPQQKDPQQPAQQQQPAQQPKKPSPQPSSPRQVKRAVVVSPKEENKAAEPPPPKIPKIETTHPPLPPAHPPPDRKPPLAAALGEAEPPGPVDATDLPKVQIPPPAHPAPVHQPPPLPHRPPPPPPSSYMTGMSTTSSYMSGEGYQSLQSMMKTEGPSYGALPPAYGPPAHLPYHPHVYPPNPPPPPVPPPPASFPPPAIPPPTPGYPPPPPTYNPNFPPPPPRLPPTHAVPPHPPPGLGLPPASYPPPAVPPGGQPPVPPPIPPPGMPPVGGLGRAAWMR

GI50 [2, 6] [µM] | IC50 [3] [µM] | GI50 [5, 7] [µM] | GI50 ([2]; read-out: HCC1954 GI50) [µM] | GI50 ([5]; read-out: SK-Br3 GI50) [µM] | Compound | cyclinK degradation [1] | Pol II CTD (Ser2) phosphorylation [4]
0.105 | 0.433 | – | – | – | CC(C)n1cnc2c(NCc3ccc(-c4ccccn4)cn3)nc(-c3cccnc3)nc21 [Example 1, N-([2,3′-bipyridin]-6′-ylmethyl)-9-isopropyl-2-(pyridin-3-yl)-9H-purin-6-amine] | induced the degradation of cyclinK | inhibited Pol II CTD (Ser2) phosphorylation in a dose-dependent manner
0.659 | 0.582 | 0.866 | – | – | CC(C)n1cnc2c(NCc3ccc(-c4cccnc4)cn3)nc(-c3cccnc3)nc21 [Example 2, N-([3,3′-bipyridin]-6-ylmethyl)-9-isopropyl-2-(pyridin-3-yl)-9H-purin-6-amine] | induced the degradation of cyclinK | inhibited Pol II CTD (Ser2) phosphorylation in a dose-dependent manner
0.888 | 0.627 | 0.74 | – | – | CC(C)n1cnc2c(NCc3ccc(-c4ccncc4)cn3)nc(-c3cccnc3)nc21 [Example 4, N-([3,4′-bipyridin]-6-ylmethyl)-9-isopropyl-2-(pyridin-3-yl)-9H-purin-6-amine] | induced the degradation of cyclinK | inhibited Pol II CTD (Ser2) phosphorylation in a dose-dependent manner
– | 0.481 | – | – | – | Cc1cc(-c2ccc(CNc3nc(-c4cccnc4)nc4c3ncn4C(C)C)nc2)ccn1 [Example 5, 9-isopropyl-N-((2′-methyl-[3,4′-bipyridin]-6-yl)methyl)-2-(pyridin-3-yl)-9H-purin-6-amine] | induced the degradation of cyclinK | inhibited Pol II CTD (Ser2) phosphorylation in a dose-dependent manner
1.88 | 0.104 | 2.6 | – | – | CC(C)n1cnc2c(NCc3ccc(-c4cccnc4)nc3)nc(-c3ccc4[nH]ncc4c3)nc21 [Example 14, N-([2,3′-bipyridin]-5-ylmethyl)-2-(1H-indazol-5-yl)-9-isopropyl-9H-purin-6-amine] | – | –
4.23 | 0.486 | 3.71 | – | – | CC(C)n1cnc2c(NCc3ccc(-c4cccnc4)nc3)nc(-c3cnc4ccccc4c3)nc21 [Example 16, N-([2,3′-bipyridin]-5-ylmethyl)-9-isopropyl-2-(quinolin-3-yl)-9H-purin-6-amine] | – | –
0.937 | 0.09 | 1.25 | – | – | Cc1ccc(-c2nc(NCc3ccc(-c4cccnc4)nc3)c3ncn(C(C)C)c3n2)cn1 [Example 17, N-([2,3′-bipyridin]-5-ylmethyl)-9-isopropyl-2-(6-methylpyridin-3-yl)-9H-purin-6-amine] | – | –
0.279 | 0.065 | 0.375 | – | – | CC(C)n1cnc2c(NCc3ccc(-c4cccnc4)nc3)nc(-c3ccc(N)nc3)nc21 [Example 18, N-([2,3′-bipyridin]-5-ylmethyl)-2-(6-aminopyridin-3-yl)-9-isopropyl-9H-purin-6-amine] | – | –
0.308 | 0.051 | 0.314 | – | – | CC(C)n1cnc2c(NCc3ccc(-c4cccnc4)nc3)nc(-c3cncnc3)nc21 [Example 20, N-([2,3′-bipyridin]-5-ylmethyl)-9-isopropyl-2-(pyrimidin-5-yl)-9H-purin-6-amine] | – | –
2.62 | 0.619 | 2.58 | – | – | CC(C)n1cnc2c(NCc3ccc(-c4cccnc4)nc3)nc(-c3ccccc3N)nc21 [Example 25, N-([2,3′-bipyridin]-5-ylmethyl)-2-(2-aminophenyl)-9-isopropyl-9H-purin-6-amine] | – | –
0.34 | 0.17 | 0.615 | – | – | CC(C)n1cnc2c(NCc3ccc(-c4cccnc4)nc3)nc(-c3cccc(N)c3)nc21 [Example 26, N-([2,3′-bipyridin]-5-ylmethyl)-2-(3-aminophenyl)-9-isopropyl-9H-purin-6-amine] | – | –
1.31 | 0.147 | 1.75 | – | – | CC(C)n1cnc2c(NCc3ccc(-c4cccnc4)nc3)nc(-c3ccc(F)nc3)nc21 [Example 28, N-([2,3′-bipyridin]-5-ylmethyl)-2-(6-fluoropyridin-3-yl)-9-isopropyl-9H-purin-6-amine] | – | –
1.56 | 0.799 | 2.31 | – | – | CC(C)n1cnc2c(NCc3ccc(-c4cccnc4)nc3)nc(-c3ccccc3NCCO)nc21 [Example 31, 2-((2-(6-(([2,3′-bipyridin]-5-ylmethyl)amino)-9-isopropyl-9H-purin-2-yl)phenyl)amino)ethan-1-ol] | – | –
6.09 | 3.01 | 11.3 | – | – | CC(C)n1cnc2c(NCc3ccc(-c4cccnc4)nc3)nc(-c3ccccc3NCCCO)nc21 [Example 32, 3-((2-(6-(([2,3′-bipyridin]-5-ylmethyl)amino)-9-isopropyl-9H-purin-2-yl)phenyl)amino)propan-1-ol] | – | –
0.906 | 0.499 | 1.09 | – | – | CC(C)n1cnc2c(NCc3ccc(-c4cccnc4)nc3)nc(-c3ccc(NCCCO)cc3)nc21 [Example 34, 3-((4-(6-(([2,3′-bipyridin]-5-ylmethyl)amino)-9-isopropyl-9H-purin-2-yl)phenyl)amino)propan-1-ol] | – | –
0.173 | 0.053 | 0.261 | – | – | CC(C)n1cnc2c(NCc3ccc(-c4cccnc4)nc3)nc(-c3ccc(NCCO)nc3)nc21 [Example 35, 2-((5-(6-(([2,3′-bipyridin]-5-ylmethyl)amino)-9-isopropyl-9H-purin-2-yl)pyridin-2-yl)amino)ethan-1-ol] | – | –
3.45 | 2.35 | 5.18 | – | – | Cc1cc(N)n(-c2nc(NCc3ccc(-c4cccnc4)nc3)c3ncn(C(C)C)c3n2)n1 [Example 40, N-([2,3′-bipyridin]-5-ylmethyl)-2-(5-amino-3-methyl-1H-pyrazol-1-yl)-9-isopropyl-9H-purin-6-amine] | – | –
10 | 2.05 | 13.3 | – | – | CC(C)n1cnc2c(NCc3ccc(-c4cccnc4)nc3)nc(-n3cc(CO)nn3)nc21 [Example 41, (1-(6-(([2,3′-bipyridin]-5-ylmethyl)amino)-9-isopropyl-9H-purin-2-yl)-1H-1,2,3-triazol-4-yl)methanol] | – | –
6.5 | 0.539 | 8.29 | – | – | CC(C)n1cnc2c(NCc3ccc(-c4cccnc4)nc3)nc(-n3cc(CCO)nn3)nc21 [Example 42, 2-(1-(6-(([2,3′-bipyridin]-5-ylmethyl)amino)-9-isopropyl-9H-purin-2-yl)-1H-1,2,3-triazol-4-yl)ethan-1-ol] | – | –
2.14 | 0.293 | 2.6 | – | – | c1cncc(-c2ccc(CNc3nc(-c4cccnc4)nc4c3ncn4C3CCCC3)cn2)c1 [Example 47, N-([2,3′-bipyridin]-5-ylmethyl)-9-cyclopentyl-2-(pyridin-3-yl)-9H-purin-6-amine] | – | –
0.214 | 0.05 | – | 0.214 | 0.03 | CN(C)C/C=C/C(=O)Nc1ccc(C(=O)N2CCC[C@@H](Nc3ncc(Cl)c(-c4c[nH]c5ccccc45)n3)C2)cc1 [THZ531, reference compound] | – | –
